In patent US20260092071A1, “COMPOUNDS AND COMPOSITIONS AS SMARCA2/4 DEGRADERS AND USES THEREOF” (REGENTS OF THE UNIVERSITY OF MICHIGAN, priority 2022, published 2026) one finds DC50 and Dmax data, which are given here for 9 molecules.

What all share (assay type): cell-based
Assay [1] has as its target T1, SMARCA4 (Homo sapiens, UniProt P51532). The assay is described as follows: HiBiT assay for protein degradation, Hela SMARCA4-HiBiT cells (A series). The conditions noted are these: for DC50: read-out: SMARC A4 Hela HiBit DC50. More on the design: fuse HiBiT to the carboxy terminus of SMARCA2 (Promega CS302365) or SMARCA4 (Promega CS3023225); host or cells: HeLa (CRISPR/Cas9 HiBiT knock-in). The method, then:
(§1) Hela cells were genetically modified via CRISPR/Cas9 to fuse HiBiT to the carboxy terminus of SMARCA2 (Promega CS302365) or SMARCA4 (Promega CS3023225). Cells were cultured in DMEM containing 10% FBS and 1% (Vol:Vol) penicillin-streptomycin. […] At the end of experiment, levels of SMARCA2 or SMARCA4 expression were assessed with Nano-Glo® HiBiT Lytic Detection Assay (Promega N3050). IC50 was obtained using the GraphPad Prism data analysis software.
On the technique in general: The HiBiT peptide binds its large partner to form an active luciferase.

Assay [2] concerns the target T2, SMARCA2 (Homo sapiens, UniProt P51531). Description: HiBiT assay for protein degradation, Hela SMARCA2-HiBiT cells (A series). The conditions noted are these: for DC50: read-out: SMARC A2 Hela HiBit DC50; for Dmax: read-out: SMARC A2 Hela HiBit Dmax (%). More on the design: Hela cells were genetically modified via CRISPR/Cas9 to fuse HiBiT to the carboxy terminus of SMARCA2; host or cells: HeLa (CRISPR/Cas9 HiBiT knock-in). The protocol: as §1

Assay [3] deals with T1, SMARCA4. Description: HiBit assay in engineered HT1080 CRISPR knock-in cell, 6 hrs (B series), SMARCA4. The conditions noted are these: for DC50: HT1080 CRISPR knock-in cells, read-out: SMARC A4 HT1080 HiBit DC50. In a few lines:
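Engineered HT1080 knock-in cells, 2000 cells/well, 6 hrs compound exposure, 37° C/5% CO2, 0.1% DMSO final. Lytic detection: LgBiT 1:100 plus HiBiT substrate 1:50 in lytic buffer, 10 min shake at RT, luminescence read.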

For assay [4], the target named is T2, SMARCA2. The assay is described as follows: HiBit assay in engineered HT1080 CRISPR knock-in cell, 6 hrs (B series), SMARCA2. The following applies: 6 hrs incubation; for DC50: HT1080 CRISPR knock-in cells, read-out: SMARC A2 HT1080 HiBit DC50; for Dmax: HT-1080, HT1080 CRISPR knock-in cells, read-out: SMARC A2 HT1080 HiBit Dmax (%). The method, boiled down: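 Remaining SMARCA2 protein measured as HiBiT luminescence after cell lysis with LgBiT plus lytic substrate. Engineered HT1080 knock-in cells (2000/well) were first treated 6 h at 37 °C with compound at a final 0.1% DMSO.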

[5] abbreviates: Hela SMARCA4-HiBiT cells, 24 hours treatment.
Setting [6] is: Hela SMARCA2-HiBiT cells, 24 hours treatment.
Setting [7] is: Hela SMARCA4-HiBiT cells, 24 hours treatment, read-out: SMARC A4 Hela HiBit Dmax.
Setting [8] is: HT-1080, HT1080 CRISPR knock-in cells, 6 hrs incubation, read-out: SMARC A4 HT1080 HiBit Dmax(%).

T1 sequence (P51532 whole entry): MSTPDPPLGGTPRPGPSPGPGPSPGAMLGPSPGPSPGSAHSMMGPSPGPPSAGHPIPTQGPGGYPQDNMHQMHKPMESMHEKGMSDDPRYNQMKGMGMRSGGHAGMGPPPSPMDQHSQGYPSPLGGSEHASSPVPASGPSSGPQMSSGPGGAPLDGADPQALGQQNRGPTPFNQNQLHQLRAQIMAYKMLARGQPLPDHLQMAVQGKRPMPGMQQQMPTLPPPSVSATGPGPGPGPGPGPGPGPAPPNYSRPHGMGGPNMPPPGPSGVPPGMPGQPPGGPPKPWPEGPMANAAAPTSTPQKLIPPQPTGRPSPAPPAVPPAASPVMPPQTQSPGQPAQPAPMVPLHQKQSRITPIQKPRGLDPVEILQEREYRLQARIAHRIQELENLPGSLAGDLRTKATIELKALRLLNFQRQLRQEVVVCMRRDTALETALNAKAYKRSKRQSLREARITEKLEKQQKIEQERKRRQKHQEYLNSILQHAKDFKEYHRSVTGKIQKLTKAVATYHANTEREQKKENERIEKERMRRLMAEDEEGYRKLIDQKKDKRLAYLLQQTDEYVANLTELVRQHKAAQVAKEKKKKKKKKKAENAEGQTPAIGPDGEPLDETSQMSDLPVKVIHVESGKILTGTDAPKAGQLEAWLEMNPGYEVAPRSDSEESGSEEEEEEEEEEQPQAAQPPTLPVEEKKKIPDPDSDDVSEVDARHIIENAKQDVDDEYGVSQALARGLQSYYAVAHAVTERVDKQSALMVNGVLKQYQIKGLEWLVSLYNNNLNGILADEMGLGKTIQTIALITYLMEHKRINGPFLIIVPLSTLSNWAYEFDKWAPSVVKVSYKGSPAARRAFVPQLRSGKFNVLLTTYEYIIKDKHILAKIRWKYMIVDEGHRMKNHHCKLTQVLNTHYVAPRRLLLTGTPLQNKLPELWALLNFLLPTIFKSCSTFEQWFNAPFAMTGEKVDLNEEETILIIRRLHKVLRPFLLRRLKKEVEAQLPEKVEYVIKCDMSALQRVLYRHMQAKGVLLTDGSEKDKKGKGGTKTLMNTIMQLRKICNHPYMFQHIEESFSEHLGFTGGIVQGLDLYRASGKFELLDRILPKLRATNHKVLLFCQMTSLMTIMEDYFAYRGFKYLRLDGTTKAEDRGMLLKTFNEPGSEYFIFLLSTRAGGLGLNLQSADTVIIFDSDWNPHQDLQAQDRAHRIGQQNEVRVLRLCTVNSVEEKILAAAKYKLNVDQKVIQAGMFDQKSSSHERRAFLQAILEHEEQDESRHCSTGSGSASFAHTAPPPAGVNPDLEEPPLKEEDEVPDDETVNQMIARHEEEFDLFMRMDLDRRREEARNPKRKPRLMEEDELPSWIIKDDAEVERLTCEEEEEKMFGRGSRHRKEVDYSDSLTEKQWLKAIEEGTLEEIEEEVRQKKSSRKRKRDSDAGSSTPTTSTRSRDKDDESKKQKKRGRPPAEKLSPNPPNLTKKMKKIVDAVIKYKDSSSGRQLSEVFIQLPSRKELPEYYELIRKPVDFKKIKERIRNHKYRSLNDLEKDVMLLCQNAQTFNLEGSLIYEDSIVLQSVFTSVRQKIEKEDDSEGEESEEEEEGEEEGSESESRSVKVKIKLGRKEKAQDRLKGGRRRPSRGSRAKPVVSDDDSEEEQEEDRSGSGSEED
T2 sequence (P51531 whole entry): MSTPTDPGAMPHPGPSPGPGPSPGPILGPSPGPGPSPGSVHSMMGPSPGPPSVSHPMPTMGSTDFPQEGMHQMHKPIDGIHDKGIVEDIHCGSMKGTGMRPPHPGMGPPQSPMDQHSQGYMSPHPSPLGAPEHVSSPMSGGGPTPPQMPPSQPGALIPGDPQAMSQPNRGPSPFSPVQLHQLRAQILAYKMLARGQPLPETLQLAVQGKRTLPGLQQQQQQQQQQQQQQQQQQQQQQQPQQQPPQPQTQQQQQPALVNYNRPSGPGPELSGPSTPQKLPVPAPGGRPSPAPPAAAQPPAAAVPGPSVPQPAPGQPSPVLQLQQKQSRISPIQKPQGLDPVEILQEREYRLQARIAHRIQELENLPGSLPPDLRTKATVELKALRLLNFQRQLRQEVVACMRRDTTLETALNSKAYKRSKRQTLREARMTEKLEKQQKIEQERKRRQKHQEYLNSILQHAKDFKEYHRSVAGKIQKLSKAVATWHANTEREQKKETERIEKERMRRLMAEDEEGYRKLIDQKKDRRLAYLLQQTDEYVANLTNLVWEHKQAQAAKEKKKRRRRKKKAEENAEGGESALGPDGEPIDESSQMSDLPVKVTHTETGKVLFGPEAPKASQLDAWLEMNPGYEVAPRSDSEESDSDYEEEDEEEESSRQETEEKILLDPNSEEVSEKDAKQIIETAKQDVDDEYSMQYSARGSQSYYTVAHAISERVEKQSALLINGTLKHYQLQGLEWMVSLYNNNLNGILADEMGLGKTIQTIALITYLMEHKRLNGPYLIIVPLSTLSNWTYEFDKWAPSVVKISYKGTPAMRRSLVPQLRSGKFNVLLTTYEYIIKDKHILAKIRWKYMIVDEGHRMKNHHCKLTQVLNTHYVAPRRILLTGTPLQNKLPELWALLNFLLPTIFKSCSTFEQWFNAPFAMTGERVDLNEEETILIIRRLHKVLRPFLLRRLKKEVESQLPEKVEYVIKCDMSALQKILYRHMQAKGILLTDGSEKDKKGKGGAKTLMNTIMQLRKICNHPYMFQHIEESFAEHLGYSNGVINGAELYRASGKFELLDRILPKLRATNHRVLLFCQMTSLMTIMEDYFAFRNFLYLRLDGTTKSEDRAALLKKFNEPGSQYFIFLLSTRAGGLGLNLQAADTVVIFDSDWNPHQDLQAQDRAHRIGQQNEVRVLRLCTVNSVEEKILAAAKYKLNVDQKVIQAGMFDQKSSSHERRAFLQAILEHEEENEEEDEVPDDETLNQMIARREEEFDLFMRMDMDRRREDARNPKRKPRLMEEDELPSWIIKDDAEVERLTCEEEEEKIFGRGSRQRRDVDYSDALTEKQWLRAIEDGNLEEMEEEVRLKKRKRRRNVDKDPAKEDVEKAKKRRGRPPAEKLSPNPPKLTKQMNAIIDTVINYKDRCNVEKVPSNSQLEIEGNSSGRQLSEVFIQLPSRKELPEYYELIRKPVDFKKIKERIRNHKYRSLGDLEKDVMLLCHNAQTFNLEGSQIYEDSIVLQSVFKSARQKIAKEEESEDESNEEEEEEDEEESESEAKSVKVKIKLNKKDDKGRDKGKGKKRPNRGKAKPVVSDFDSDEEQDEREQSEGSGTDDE

Turning to `Cc1ncsc1-c1ccc([C@H](C)NC(=O)[C@@H]2C[C@@H](O)CN2C(=O)[C@@H](n2cc(CCCN3CCC(c4ccc5c(c4)C4(CCCCC4)c4nc(=O)c6c(Br)cccc6n4-5)CC3)nn2)C(C)(C)C)cc1` [Compound A55, (2S,4R)-1-((S)-2-(4-(3-(4-(4′-bromo-5′-oxo-5′H-spiro[cyclohexane-1,7′-indolo[1,2-a]quinazolin]-9′-yl)piperidin-1-yl)propyl)-1H-1,2,3-triazol-1-yl)-3,3-dimethylbutanoyl)-4-hydroxy-N—((S)-1-(4-(4-methylthiazol-5-yl)phenyl)ethyl)pyrrolidine-2-carboxamide], the DC50 in assay [1] (setting [5]) and in assay [2] (setting [6]) was less than 100 nM each time. For the same molecule, the Dmax in assay [1] (Hela SMARCA4-HiBiT cells, 24 hours treatment, read-out: SMARC A4 Hela HiBit Dmax(%)) was greater than 90%; in assay [2] (setting [6]), greater than 90%.
Consider `Cc1ncsc1-c1ccc([C@H](C)NC(=O)[C@@H]2C[C@@H](O)CN2C(=O)[C@H](C2CCN(C3CCOCC3)CC2)n2cc([C@H]3CC[C@H](CN4CCC(c5ccc6c(c5)-n5c(nc(=O)c7c(Cl)cccc75)C65CCCCC5)CC4)CC3)nn2)cc1` [Compound A112, (2S,4R)-1-((S)-2-(4-((1r,4S)-4-((4-(4′-chloro-5′-oxo-5′H-spiro[cyclohexane-1,7′-indolo[1,2-a]quinazolin]-10′-yl)piperidin-1-yl)methyl)cyclohexyl)-1H-1,2,3-triazol-1-yl)-2-(1-(tetrahydro-2H-pyran-4-yl)piperidin-4-yl)acetyl)-4-hydroxy-N—((S)-1-(4-(4-methylthiazol-5-yl)phenyl)ethyl)pyrrolidine-2-carboxamide], for which the DC50 was 100 to 1000 nM in assay [1] (setting [5]) and less than 10 nM in assay [2] (setting [6]). For the same molecule, the Dmax is 50 to 69% in assay [1] (setting [7]) and greater than 90% in assay [2] (setting [6]).
In the same order, the values of `CC(C)(C)[C@@H](C(=O)N1C[C@H](O)C[C@H]1C(=O)N[C@@H](CN1CCOCC1)c1ccc(-c2ccccn2)cc1)n1cc([C@H]2CC[C@H](CN3CCC(c4ccc5c(c4)-n4c(nc(=O)c6c(Cl)cccc64)C54CCCCC4)CC3)CC2)nn1` [Compound A173, (2S,4R)-1-((S)-2-(4-((1r,4S)-4-((4-(4′-chloro-5′-oxo-5′H-spiro[cyclohexane-1,7′-indolo[1,2-a]quinazolin]-10′-yl)piperidin-1-yl)methyl)cyclohexyl)-1H-1,2,3-triazol-1-yl)-3,3-dimethylbutanoyl)-4-hydroxy-N—((R)-2-morpholino-1-(4-(pyridin-2-yl)phenyl)ethyl)pyrrolidine-2-carboxamide] are greater than 1000 nM, less than 10 nM, less than 50% and greater than 90%.
On to `Cc1ncsc1-c1ccc([C@H](C)NC(=O)[C@@H]2C[C@@H](O)CN2C(=O)[C@@H](NC(=O)CCCCN2CCC(c3ccc4c(c3)C3(CCCCC3)c3nc(=O)c5c(Cl)cccc5n3-4)CC2)C(C)(C)C)cc1` [Compound A8, (2S,4R)-1-((S)-2-(5-(4-(4′-chloro-5′-oxo-5′H-spiro[cyclohexane-1,7′-indolo[1,2-a]quinazolin]-9′-yl)piperidin-1-yl)pentanamido)-3,3-dimethylbutanoyl)-4-hydroxy-N—((S)-1-(4-(4-methylthiazol-5-yl)phenyl)ethyl) pyrrolidine-2-carboxamide], for which the Dmax in assay [1] (HeLa, read-out: SMARC A4 Hela HiBit Dmax(%)) was less than 50%; in assay [2] (HeLa) it was 70 to 90%. Besides, the DC50 is greater than 1000 nM in assay [1] (setting [5]) and 100 to 500 nM in assay [2] (setting [6]).
Consider `Cc1ncsc1-c1ccc([C@H](CN2CCOCC2)NC(=O)[C@@H]2C[C@@H](O)CN2C(=O)[C@@H](c2cc(O[C@H]3CC[C@H](CN4CCC(c5ccc6c(c5)-n5c(nc(=O)c7c(Cl)cccc75)C6(C)C)CC4)CC3)no2)C(C)C)cc1` [Compound B157, (2S,4R)-1-((R)-2-(3-(((1r,4R)-4-((4-(4-chloro-7,7-dimethyl-5-oxo-5,7-dihydroindolo[1,2-a]quinazolin-10-yl)piperidin-1-yl)methyl)cyclohexyl)oxy)isoxazol-5-yl)-3-methylbutanoyl)-4-hydroxy-N-((R)-1-(4-(4-methylthiazol-5-yl)phenyl)-2-morpholinoethyl)pyrrolidine-2-carboxamide], for which the DC50 in assay [3] (6 hrs incubation) and in assay [4] was less than 100 nM throughout. Also, the Dmax is greater than 90% in assay [3] (HT-1080, read-out: SMARC A4 HT1080 HiBit Dmax(%), HT1080 CRISPR knock-in cells, 6 hrs incubation) and greater than 90% in assay [4].
As for `Cc1ncsc1-c1ccc([C@H](C)NC(=O)[C@@H]2C[C@@H](O)CN2C(=O)[C@@H](c2cc(OC3CCC(CN4CCC(c5ccc6c(c5)-n5c(nc(=O)c7c(Cl)cccc75)C6(C)C)CC4)CC3)no2)C(C)C)cc1` (stereo partly drawn) [Compound B38, (2S,4R)-1-((R)-2-(3-((4-((4-(4-chloro-7,7-dimethyl-5-oxo-5,7-dihydroindolo[1,2-a]quinazolin-10-yl)piperidin-1-yl)methyl)cyclohexyl)oxy)isoxazol-5-yl)-3-methylbutanoyl)-4-hydroxy-N-((S)-1-(4-(4-methylthiazol-5-yl)phenyl)ethyl)pyrrolidine-2-carboxamide], the DC50 in assay [3] (6 hrs incubation) and in assay [4] was less than 100 nM each time. The Dmax is 70 to 90% in assay [3] (setting [8]) and greater than 90% in assay [4].
On to `Cc1ncsc1-c1ccc([C@H](C)NC(=O)[C@@H]2C[C@@H](O)CN2C(=O)[C@@H](c2cc(OCCn3cc(-c4ccc5c(c4)-n4c(nc(=O)c6c(Cl)cccc64)C5(C)C)cn3)no2)C(C)C)cc1` [Compound B60, (2S,4R)-1-(2-(3-(2-(4-(4-chloro-7,7-dimethyl-5-oxo-5,7-dihydroindolo[1,2-a]quinazolin-10-yl)-1H-pyrazol-1-yl)ethoxy)isoxazol-5-yl)-3-methylbutanoyl)-4-hydroxy-N-((S)-1-(4-(4-methylthiazol-5-yl)phenyl)ethyl)pyrrolidine-2-carboxamide], for which the DC50 in assay [3] (6 hrs incubation) and in assay [4] was less than 100 nM each time. In addition, the Dmax in assay [3] (setting [8]) and in assay [4] was less than 50% each time.
As for `Cc1ncsc1-c1ccc([C@H](C)NC(=O)[C@@H]2C[C@@H](O)CN2C(=O)[C@H](C(C)C)n2cc(CCCCCN3CCC(c4ccc5c(c4)-n4c(nc(=O)c6c(Cl)cccc64)C5(C)C)CC3)nn2)cc1` [Compound B61, (2S,4R)-1-((S)-2-(4-(5-(4-(4-chloro-7,7-dimethyl-5-oxo-5,7-dihydroindolo[1,2-a]quinazolin-10-yl)piperidin-1-yl)pentyl)-1H-1,2,3-triazol-1-yl)-3-methylbutanoyl)-4-hydroxy-N-((S)-1-(4-(4-methylthiazol-5-yl)phenyl)ethyl)pyrrolidine-2-carboxamide], the DC50 in assay [3] (6 hrs incubation) and in assay [4] was less than 100 nM each time. The figures for the Dmax in assay [3] (setting [8]) and in assay [4] were 70 to 90% and greater than 90%, respectively.
As to `Cc1ncsc1-c1ccc([C@H](C)NC(=O)[C@@H]2C[C@@H](O)CN2C(=O)[C@@H](c2cc(OC3CCC(Cn4cc(-c5ccc6c(c5)-n5c(nc(=O)c7c(Cl)cccc75)C6(C)C)cn4)CC3)no2)C(C)C)cc1` (stereo partly drawn) [Compound B95, (2S,4R)-1-((R)-2-(3-((4-((4-(4-chloro-7,7-dimethyl-5-oxo-5,7-dihydroindolo[1,2-a]quinazolin-10-yl)-1H-pyrazol-1-yl)methyl)cyclohexyl)oxy)isoxazol-5-yl)-3-methylbutanoyl)-4-hydroxy-N-((S)-1-(4-(4-methylthiazol-5-yl)phenyl)ethyl)pyrrolidine-2-carboxamide], the values for the DC50 in assay [3] (6 hrs incubation) and in assay [4] were greater than 1000 nM and 100 to 500 nM, respectively. The results for the Dmax in assay [3] (setting [8]) and in assay [4] were less than 50% and 50 to 69%, respectively.
